The text below walks through data of patent publication US20220389007A1, “INHIBITORS OF HUMAN IMMUNODEFICIENCY VIRUS REPLICATION” (VIIV HEALTHCARE UK (No. 5) LIMITED, priority 2019, published 2022).

The structures appear in SMILES notation.

The test system of one data set is recombinant NL4-3 virus. Nature of the data set: HIV cell culture assay (antiviral activity, luciferase readout). Format: cell-based. To be noted: Human immunodeficiency virus 1, NL43, MT2, MT-2 cells infected for 4-5 days with recombinant NL4-3 virus carrying Renilla luciferase. A digest of the protocol: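 MT-2 cells infected for 4-5 days with NL4-3 reference virus carrying Renilla luciferase in place of part of nef, in presence of serial compound dilutions. Luciferase read with live-cell substrate; EC50 from median effect equation fit.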

Data set [1] is described as follows: Compound cytotoxicity, XTT-based colorimetric assay. In kind it is cell-based. To be noted: human; uninfected MT2 cells, day 4, XTT assay. A digest of the protocol:
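Run under the antiviral-assay protocol but without virus. Viability was read on day 4 and CC50 values were derived from the readout.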
(Tetrazolium assays rely on reduction of a dye to a coloured formazan, in cell work by metabolically active cells.)

With `Cn1nc(NS(C)(=O)=O)c2c(Cl)ccc(-n3c([C@H](Cc4cc(F)cc(F)c4)NC(=O)Cn4nc(C(F)F)c5c4C(F)(F)[C@@H]4C[C@H]54)nc4nc(-c5cc(C(F)(F)F)cc(C(F)(F)F)n5)ccc4c3=O)c21` (atropisomer, axis not shown; (P)) [Example 14, N-((S)-1-(7-(4,6-bis(trifluoromethyl)pyridin-2-yl)-(3P)-3-(4-chloro-1-methyl-3-(methylsulfonamido)-1H-indazol-7-yl)-4-oxo-3,4-dihydropyrido[2,3-d]pyrimidin-2-yl)-2-(3,5-difluorophenyl)ethyl)-2-((3bS,4aR)-3-(difluoromethyl)-5,5-difluoro-3b,4,4a,5-tetrahydro-1H-cyclopropa[3,4]cyclopenta[1,2-c]pyrazol-1-yl)acetamide], in the data set on recombinant NL4-3 virus, the EC50 turned out to be 0.28 nM. Besides, the CC50 at 4 day in data set [1] is > 100 nM.

Turning to `Cc1nc2ccc(-c3ccc4c(=O)n(-c5ccc(Cl)c6c(NS(C)(=O)=O)nn(C)c56)c([C@H](Cc5cc(F)cc(F)c5)NC(=O)Cn5nc(C(F)F)c6c5C(F)(F)[C@@H]5C[C@H]65)nc4n3)cc2s1` (atropisomer, axis not shown; (P)) [Example 67, N-((S)-1-((3P)-3-(4-chloro-1-methyl-3-(methylsulfonamido)-1H-indazol-7-yl)-7-(2-methylbenzo[d]thiazol-6-yl)-4-oxo-3,4-dihydropyrido[2,3-d]pyrimidin-2-yl)-2-(3,5-difluorophenyl)ethyl)-2-((3bS,4aR)-3-(difluoromethyl)-5,5-difluoro-3b,4,4a,5-tetrahydro-1H-cyclopropa[3,4]cyclopenta[1,2-c]pyrazol-1-yl)acetamide], in the data set on recombinant NL4-3 virus, the EC50 was 0.55 nM. Moreover, the CC50 at 4 day in data set [1] is > 100 nM.

Regarding `Cn1nc(NS(C)(=O)=O)c2c(Cl)ccc(-n3c([C@H](Cc4cc(F)cc(F)c4)NC(=O)Cn4nc(C(F)F)c5c4C(F)(F)[C@@H]4C[C@H]54)nc4nc(-n5cc(C(F)(F)F)cn5)ccc4c3=O)c21` (atropisomer, axis not shown; (P)) [Example 66, N-((S)-1-((3P)-3-(4-chloro-1-methyl-3-(methylsulfonamido)-1H-indazol-7-yl)-4-oxo-7-(4-(trifluoromethyl)-1H-pyrazol-1-yl)-3,4-dihydropyrido[2,3-d]pyrimidin-2-yl)-2-(3,5-difluorophenyl)ethyl)-2-((3bS,4aR)-3-(difluoromethyl)-5,5-difluoro-3b,4,4a,5-tetrahydro-1H-cyclopropa[3,4]cyclopenta[1,2-c]pyrazol-1-yl)acetamide], the EC50 in the data set with recombinant NL4-3 virus worked out at 0.07 nM. In addition, the CC50 at 4 day in data set [1] was > 100 nM.

With `Cn1nc(NS(C)(=O)=O)c2c(Cl)ccc(-n3c([C@H](Cc4cc(F)cc(F)c4)NC(=O)Cn4nc(C(F)F)c5c4C(F)(F)[C@@H]4C[C@H]54)nc4nc(-c5nccc(C(F)(F)F)n5)ccc4c3=O)c21` (atropisomer, axis not shown; (P)) [Example 5, N-((S)-1-((3P)-3-(4-chloro-1-methyl-3-(methylsulfonamido)-1H-indazol-7-yl)-4-oxo-7-(4-(trifluoromethyl)pyrimidin-2-yl)-3,4-dihydropyrido[2,3-d]pyrimidin-2-yl)-2-(3,5-difluorophenyl)ethyl)-2-((3bS,4aR)-3-(difluoromethyl)-5,5-difluoro-3b,4,4a,5-tetrahydro-1H-cyclopropa[3,4]cyclopenta[1,2-c]pyrazol-1-yl)acetamide], the EC50 in the data set on recombinant NL4-3 virus amounted to 0.021 nM. Moreover, in data set [1], the CC50 at 4 day is > 100 nM.

`Cc1cc(-c2ccc3c(=O)n(-c4ccc(Cl)c5c(NS(C)(=O)=O)nn(C)c45)c([C@H](Cc4cc(F)cc(F)c4)NC(=O)Cn4nc(C(F)F)c5c4C(F)(F)[C@@H]4C[C@H]54)nc3n2)n[nH]1` (atropisomer, axis not shown; (P)) [Example 98, N-((S)-1-((3P)-3-(4-chloro-1-methyl-3-(methylsulfonamido)-1H-indazol-7-yl)-7-(5-methyl-1H-pyrazol-3-yl)-4-oxo-3,4-dihydropyrido[2,3-d]pyrimidin-2-yl)-2-(3,5-difluorophenyl)ethyl)-2-((3bS,4aR)-3-(difluoromethyl)-5,5-difluoro-3b,4,4a,5-tetrahydro-1H-cyclopropa[3,4]cyclopenta[1,2-c]pyrazol-1-yl)acetamide]: the EC50 with recombinant NL4-3 virus worked out at 0.2 nM. In addition, in data set [1], the CC50 at 4 day is > 100 nM.

As for `Cn1nc(NS(C)(=O)=O)c2c(Cl)ccc(-n3c([C@H](Cc4cc(F)cc(F)c4)NC(=O)Cn4nc(C(F)F)c5c4C(F)(F)[C@@H]4C[C@H]54)nc4nc(-c5cc(C(F)F)ccn5)ccc4c3=O)c21` (atropisomer, axis not shown; (P)) [Example 39, N-((S)-1-((3P)-3-(4-chloro-1-methyl-3-(methylsulfonamido)-1H-indazol-7-yl)-7-(4-(difluoromethyl)pyridin-2-yl)-4-oxo-3,4-dihydropyrido[2,3-d]pyrimidin-2-yl)-2-(3,5-difluorophenyl)ethyl)-2-((3bS,4aR)-3-(difluoromethyl)-5,5-difluoro-3b,4,4a,5-tetrahydro-1H-cyclopropa[3,4]cyclopenta[1,2-c]pyrazol-1-yl)acetamide], the EC50 in the data set on recombinant NL4-3 virus came to 0.046 nM. Moreover, in data set [1], the CC50 at 4 day is > 100 nM.

Regarding `Cn1nc(NS(C)(=O)=O)c2c(Cl)ccc(-n3c([C@H](Cc4cc(F)cc(F)c4)NC(=O)Cn4nc(C(F)F)c5c4C(F)(F)[C@@H]4C[C@H]54)nc4nc(-c5cnn(CC(F)(F)F)c5)ccc4c3=O)c21` (atropisomer, axis not shown; (P)) [Example 75, N-((S)-1-((3P)-3-(4-chloro-1-methyl-3-(methylsulfonamido)-1H-indazol-7-yl)-4-oxo-7-(1-(2,2,2-trifluoroethyl)-1H-pyrazol-4-yl)-3,4-dihydropyrido[2,3-d]pyrimidin-2-yl)-2-(3,5-difluorophenyl)ethyl)-2-((3bS,4aR)-3-(difluoromethyl)-5,5-difluoro-3b,4,4a,5-tetrahydro-1H-cyclopropa[3,4]cyclopenta[1,2-c]pyrazol-1-yl)acetamide], in the data set with recombinant NL4-3 virus, the EC50 worked out at 0.09 nM. Also, the CC50 at 4 day in data set [1] is > 100 nM.

For the compound `Cn1nccc1-c1ccc2c(=O)n(-c3ccc(Cl)c4c(NS(C)(=O)=O)nn(C)c34)c([C@H](Cc3cc(F)cc(F)c3)NC(=O)Cn3nc(C(F)F)c4c3C(F)(F)[C@@H]3C[C@H]43)nc2n1` (atropisomer, axis not shown; (P)) [Example 68, N-((S)-1-((3P)-3-(4-chloro-1-methyl-3-(methylsulfonamido)-1H-indazol-7-yl)-7-(1-methyl-1H-pyrazol-5-yl)-4-oxo-3,4-dihydropyrido[2,3-d]pyrimidin-2-yl)-2-(3,5-difluorophenyl)ethyl)-2-((3bS,4aR)-3-(difluoromethyl)-5,5-difluoro-3b,4,4a,5-tetrahydro-1H-cyclopropa[3,4]cyclopenta[1,2-c]pyrazol-1-yl)acetamide], the EC50 with recombinant NL4-3 virus was 0.049 nM. Besides, the CC50 at 4 day in data set [1] is > 100 nM.

Take `Cn1nc(NS(C)(=O)=O)c2c(Cl)ccc(-n3c([C@H](Cc4cc(F)cc(F)c4)NC(=O)Cn4nc(C(F)F)c5c4C(F)(F)[C@@H]4C[C@H]54)nc4nc(-c5ccn(CCCC(F)(F)F)n5)ccc4c3=O)c21` (atropisomer, axis not shown; (P)) [Example 85, N-((S)-1-((3P)-3-(4-chloro-1-methyl-3-(methylsulfonamido)-1H-indazol-7-yl)-4-oxo-7-(1-(4,4,4-trifluorobutyl)-1H-pyrazol-3-yl)-3,4-dihydropyrido[2,3-d]pyrimidin-2-yl)-2-(3,5-difluorophenyl)ethyl)-2-((3bS,4aR)-3-(difluoromethyl)-5,5-difluoro-3b,4,4a,5-tetrahydro-1H-cyclopropa[3,4]cyclopenta[1,2-c]pyrazol-1-yl)acetamide]: in the data set with recombinant NL4-3 virus, the 50% effective concentration (EC50) worked out at 0.096 nM. For the same compound, the CC50 at 4 day in data set [1] is > 100 nM.

Consider `Cn1nc(NS(C)(=O)=O)c2c(Cl)ccc(-n3c([C@H](Cc4cc(F)cc(F)c4)NC(=O)Cn4nc(C(F)F)c5c4C(F)(F)[C@@H]4C[C@H]54)nc4nc(-c5ccn(CC(F)(F)C(F)(F)F)n5)ccc4c3=O)c21` (atropisomer, axis not shown; (P)) [Example 88, N-((S)-1-((3P)-3-(4-chloro-1-methyl-3-(methylsulfonamido)-1H-indazol-7-yl)-4-oxo-7-(1-(2,2,3,3,3-pentafluoropropyl)-1H-pyrazol-3-yl)-3,4-dihydropyrido[2,3-d]pyrimidin-2-yl)-2-(3,5-difluorophenyl)ethyl)-2-((3bS,4aR)-3-(difluoromethyl)-5,5-difluoro-3b,4,4a,5-tetrahydro-1H-cyclopropa[3,4]cyclopenta[1,2-c]pyrazol-1-yl)acetamide], for which the EC50 with recombinant NL4-3 virus was found to be 0.079 nM. For the same compound, in data set [1], the CC50 at 4 day was > 100 nM.

`Cc1cc(-c2ccc3c(=O)n(-c4ccc(Cl)c5c(NS(C)(=O)=O)nn(C)c45)c([C@H](Cc4cc(F)cc(F)c4)NC(=O)Cn4nc(C(F)F)c5c4C(F)(F)[C@@H]4C[C@H]54)nc3n2)nc(C(F)(F)F)n1` (atropisomer, axis not shown; (P)) [Example 18, N-((S)-1-((3P)-3-(4-chloro-1-methyl-3-(methylsulfonamido)-1H-indazol-7-yl)-7-(6-methyl-2-(trifluoromethyl)pyrimidin-4-yl)-4-oxo-3,4-dihydropyrido[2,3-d]pyrimidin-2-yl)-2-(3,5-difluorophenyl)ethyl)-2-((3bS,4aR)-3-(difluoromethyl)-5,5-difluoro-3 b,4,4a,5-tetrahydro-1H-cyclopropa[3,4]cyclopenta[1,2-c]pyrazol-1-yl)acetamide]: the EC50 with recombinant NL4-3 virus was determined as 0.068 nM. Besides, in data set [1], the CC50 at 4 day is > 100 nM.

One may read the EC50 as the concentration giving half of the maximal effect. The CC50 is the concentration at which the toxic effect on the cells reaches its halfway point. Read a low CC50 as harm at low concentration.
